# Data: ChEMBL document CHEMBL4765487, “From a Designer Drug to the Discovery of Selective Cannabinoid Type 2 Receptor Agonists with Favorable Pharmacokinetic Profiles for the Treatment of Systemic Sclerosis” (J Med Chem, 2021)
# The source made the active and inactive calls. No cut-off for these calls is given here.
# Assays:
# [1] = molecular target: T1, Cannabinoid receptor 2 (Homo sapiens, UniProt P34972); assay: Agonist activity at human CB2 receptor expressing CHO cells co-expressing Galpha16 by calcium mobilization assay relative to CP55940; assay type: functional, cell-based; conditions: filed as agonist
# [2] = molecular target: T2, Cannabinoid receptor 1 (Homo sapiens, UniProt P21554); assay: Agonist activity at human CB1 receptor expressing CHO cells co-expressing Galpha16 by calcium mobilization assay relative to CP55940; assay type: functional, cell-based
# [3] = molecular target: T1, Cannabinoid receptor 2; assay: Antagonist activity at human CB2 receptor expressing CHO cells co-expressing Galpha16 assessed as inhibition of CP55940-induced calcium mobilization pre-incubated for 15 mins before CP55940 addition; assay type: functional, cell-based; conditions: cho
# [4] = molecular target: T2, Cannabinoid receptor 1; assay: Agonist activity at human CB1 receptor expressing CHO cells co-expressing Galpha16 by calcium mobilization assay; assay type: functional, cell-based
# [5] = molecular target: T1, Cannabinoid receptor 2; assay: Agonist activity at human CB2 receptor expressing CHO cells co-expressing Galpha16 by calcium mobilization assay; assay type: functional, cell-based
# [6] = in vitro; conditions: human, liver
# [7] = in vitro; conditions: human, liver microsomes
# Description: Stability in human liver microsomes assessed as parent compound remaining at 1 uM incubated for 60 mins in presence of NADPH by LC-MS/MS analysis
# [8] = in vitro; conditions: human, liver microsomes; remark: listed apart in the source
# [9] = in vitro; conditions: human, liver microsomes; remark: listed apart in the source
# Description: Half life in human liver microsomes at 1 uM in presence of NADPH by LC-MS/MS analysis
# [10] = molecular target: T1, Cannabinoid receptor 2; assay: Agonist activity at CB2 receptor (unknown origin) relative to control; conditions: filed as agonist
# [11] = molecular target: T2, Cannabinoid receptor 1; assay: Agonist activity at CB1 receptor (unknown origin) relative to control; conditions: filed as agonist
# [12] = molecular target: T2, Cannabinoid receptor 1; assay: Agonist activity at CB1 receptor (unknown origin)
# [13] = molecular target: T2, Cannabinoid receptor 1; assay: Agonist activity at human CB1 receptor expressing CHO cells co-expressing Galpha16 at 10 uM by calcium mobilization assay; assay type: functional, cell-based; conditions: filed as agonist
# [14] = molecular target: T2, Cannabinoid receptor 1; assay: Induction of receptor desensitization at human CB1 receptor expressing CHO cells co-expressing Galpha16 at 10 uM followed by washing with HBSS buffer upon incubation for 10 mins and restimulated with CP55940 by calcium mobilization assay; assay type: functional, cell-based; conditions: filed as agonist
# T2 sequence (P21554 whole entry): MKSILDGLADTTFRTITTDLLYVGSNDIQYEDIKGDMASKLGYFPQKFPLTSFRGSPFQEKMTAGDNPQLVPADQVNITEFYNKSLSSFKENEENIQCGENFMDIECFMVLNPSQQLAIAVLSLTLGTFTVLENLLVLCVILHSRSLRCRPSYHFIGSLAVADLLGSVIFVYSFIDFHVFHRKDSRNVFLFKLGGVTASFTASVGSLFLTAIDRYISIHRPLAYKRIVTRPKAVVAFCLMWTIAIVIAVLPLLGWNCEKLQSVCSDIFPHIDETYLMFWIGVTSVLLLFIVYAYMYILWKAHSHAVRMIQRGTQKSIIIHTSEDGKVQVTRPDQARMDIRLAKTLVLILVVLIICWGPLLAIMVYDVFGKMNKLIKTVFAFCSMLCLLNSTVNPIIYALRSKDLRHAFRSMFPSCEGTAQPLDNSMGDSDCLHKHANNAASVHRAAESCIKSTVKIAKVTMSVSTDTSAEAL
# T1 sequence (P34972 whole entry): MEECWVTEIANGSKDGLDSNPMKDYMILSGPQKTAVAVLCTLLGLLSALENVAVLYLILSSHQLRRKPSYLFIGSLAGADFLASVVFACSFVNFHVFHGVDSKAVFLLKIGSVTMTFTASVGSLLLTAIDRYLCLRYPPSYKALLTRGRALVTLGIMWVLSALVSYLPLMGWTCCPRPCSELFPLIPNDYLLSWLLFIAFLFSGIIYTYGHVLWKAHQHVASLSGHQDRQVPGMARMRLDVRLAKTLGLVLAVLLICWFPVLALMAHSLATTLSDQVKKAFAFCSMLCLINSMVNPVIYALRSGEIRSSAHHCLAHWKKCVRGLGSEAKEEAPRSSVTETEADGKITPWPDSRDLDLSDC
Structure (SMILES),Emax [1] [%],Emax ([2]; filed as agonist) [%],EC50 [4] [nM],EC50 [5] [nM],also measured
CCCCCn1nc(C(=O)NC(C)(C)CO)cc1C(F)(F)F,80,80,187,53.8,IC50 [3]: Not Active
CCCCCn1nc(C(=O)N[C@@H](C(=O)OC)C(C)C)cc1C(C)(C)C,90,90,1.6,7.4,"CLint scaled at 1 µM [6]: 105 mL/min/kg; remaining at 1 h, 1 µM [7]: 2.9%; microsomal CLint at 1 µM [8]: 117 µL/min/mg; half-life at 1 µM [9]: 11.8 min"
CCCCCn1nc(C(=O)NC(C)(C)CO)c(Cl)c1C(C)(C)C,100,50,33.9,3.4,IC50 [3]: Not Active
CCCCCn1nc(C(=O)Nc2ccc(Cl)cc2)cc1C(C)(C)C,80,–,100000,2350,–
CC(C)(CO)NC(=O)c1cc(C(C)(C)C)n(-c2ccccc2)n1,–,–,100000,100000,–
CCCCCn1nc(C(=O)NC(C)(C)CO)c(N)c1C(C)(C)C,100,80,195,5.5,"IC50 [3]: Not Active; CLint scaled at 1 µM [6]: 94 mL/min/kg; remaining at 1 h, 1 µM [7]: 4.6%; microsomal CLint at 1 µM [8]: 104 µL/min/mg; half-life at 1 µM [9]: 13.3 min"
CC(C)(CO)NC(=O)c1cc(C(C)(C)C)n(-c2ccc(F)cn2)n1,100,–,100000,135,–
CC(C)(CO)NC(=O)c1cc(C(C)(C)C)n(-c2ccc(Cl)cn2)n1,50,–,100000,7310,–
CCCCCn1nc(C(C)(C)C)cc1C(=O)NCc1ccc(Cl)cc1,–,–,100000,100000,–
CCCCCn1nc(C(=O)N[C@H](C(=O)OC)C(C)C)cc1C(C)(C)C,100,70,26.6,7.2,–
CCCCCn1cc(C(=O)NC23CC4CC(CC(C4)C2)C3)c2ccccc21,–,–,–,–,Emax [10]: 91%; Emax [11]: 98%; EC50 [12]: 34 nM
CCCCCCC(C)(C)c1ccc([C@@H]2C[C@H](O)CC[C@H]2CCCO)c(O)c1 [CP-55940],–,–,–,–,IC50 [3]: Not Active; Activity [13]: Active; Activity [14]: Active
CCCCCn1nc(C(=O)NC(C)(C)CO)c([N+](=O)[O-])c1C(C)(C)C,70,100,129,13.3,IC50 [3]: Not Active
CC(C)(CO)NC(=O)c1cc(C(C)(C)C)n(-c2ccc(F)cc2)n1,82,–,100000,685,–
CCCCCn1nc(C(=O)NC2CCCCC2)cc1C(C)(C)C,80,50,104,46,–
C[C@]12CC[C@H]3[C@@H](CCC4=CC(=O)CC[C@@]43C)[C@@H]1CC[C@@H]2O [TESTOSTERONE],–,–,–,–,"CLint scaled at 1 µM [6]: 66.3 mL/min/kg; remaining at 1 h, 1 µM [7]: 10.7%; microsomal CLint at 1 µM [8]: 73.6 µL/min/mg; half-life at 1 µM [9]: 18.8 min"
O=C(O)Cc1ccccc1Nc1c(Cl)cccc1Cl [DICLOFENAC],–,–,–,–,CLint scaled at 1 µM [6]: 116 mL/min/kg; microsomal CLint at 1 µM [8]: 129 µL/min/mg
CCCCCn1nc(C(=O)NC(C)(C)CO)cc1C(C)(C)C,100,100,17.4,2.9,"CLint scaled at 1 µM [6]: 56.1 mL/min/kg; remaining at 1 h, 1 µM [7]: 14.9%; microsomal CLint at 1 µM [8]: 62.4 µL/min/mg; half-life at 1 µM [9]: 22.2 min"
CCCCCn1nc(C(=O)NC(C)(C)CO)cc1CC(C)(C)C,50,90,27,12,IC50 [3]: Not Active
CCCn1nc(C(=O)NC(C)(C)CO)cc1C(C)(C)C,100,–,100000,210,–
CCCCCn1nc(C(=O)N[C@@H](C(=O)OC)C(C)(C)C)cc1C(C)(C)C,100,100,4.3,26.1,–
CC(C)(CO)NC(=O)c1cc(C(C)(C)C)n(CC2CC2)n1,100,–,4900,103,Emax [2]: 20%
CC(C)(CO)NC(=O)c1cc(C(C)(C)C)n(-c2ccccn2)n1,80,–,100000,3890,–
CCCCCn1nc(C(C)(C)C)cc1C(=O)NC12CC3CC(CC(O)(C3)C1)C2,–,–,100000,100000,–
CCCCCn1nc(C(=O)NCc2ccc(Cl)cc2)cc1C(C)(C)C,–,–,100000,100000,–
CC(C)(CO)NC(=O)c1cc(C(C)(C)C)n(-c2ccc(Cl)cc2)n1,100,–,100000,204,–
CC(C)(CO)NC(=O)c1cc(C(C)(C)C)n(-c2ncc(C(F)(F)F)cc2Cl)n1,–,–,100000,100000,–
